Source: ChEMBL document CHEMBL4507303, “Data for DCP probe TP-004” (2021)

Target: Endothelin-1 receptor (Homo sapiens, UniProt P25101)
Assay: Inhibition of [125I]-endothelin-1 binding to EDNRA; call rule not given here

Endothelin-1 receptor, sequence (P25101 whole entry): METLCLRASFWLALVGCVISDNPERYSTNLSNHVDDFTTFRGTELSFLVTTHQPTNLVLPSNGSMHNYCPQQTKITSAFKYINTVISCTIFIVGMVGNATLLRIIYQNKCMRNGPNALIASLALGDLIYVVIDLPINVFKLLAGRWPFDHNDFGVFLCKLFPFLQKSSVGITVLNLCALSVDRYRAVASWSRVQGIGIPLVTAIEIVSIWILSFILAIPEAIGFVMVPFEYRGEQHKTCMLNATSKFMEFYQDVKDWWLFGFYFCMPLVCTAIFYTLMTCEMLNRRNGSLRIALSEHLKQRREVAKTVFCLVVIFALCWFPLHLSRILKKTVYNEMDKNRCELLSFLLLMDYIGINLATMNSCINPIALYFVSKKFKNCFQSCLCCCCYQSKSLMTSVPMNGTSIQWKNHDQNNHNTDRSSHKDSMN

- IC50: > 10 µM (not active)
Compound: FC(F)(F)c1cc(-c2ccccc2)c2nncn2c1 [TPn-004]
